In publication PMC11887843 (Science Advances, 2024):
Like-named read-outs stand apart in the source and are kept apart here.

Assays:
caspase-11 [1] = molecular target: T1, caspase-11 (Mus musculus, UniProt P70343); assay: microscale thermophoresis; format: binding
T1 sequence (P70343 1-80): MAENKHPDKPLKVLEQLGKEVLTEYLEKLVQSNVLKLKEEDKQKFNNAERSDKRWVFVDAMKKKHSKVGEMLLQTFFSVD

[2] = molecular target: T2, AcCARD (uncharacterized CARD-containing protein) (Amphilophus citrinellus, UniProt A0A3Q0SFM2); assay: limited trypsin digestion and blue native PAGE in […] lysates; format: cell-based
T2 sequence (A0A3Q0SFM2 1-92): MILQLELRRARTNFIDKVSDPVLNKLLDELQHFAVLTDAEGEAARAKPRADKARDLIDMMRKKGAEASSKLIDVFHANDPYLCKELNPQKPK

caspase-11 [3] = molecular target: T1, caspase-11; assay: microscale thermophoresis; format: binding; remark: listed apart in the source

Row | Kd (caspase-11 [1]) | Compound | limited trypsin digestion and blue native PAGE in 293T lysates [2] | Kd (caspase-11 [3])
1 | ~15 µM | CCCCCCCCCCCCCCCC(=O)OC[C@H](COP(=O)([O-])OCC[N+](C)(C)C)OC(=O)CCCC(=O)O [PGPC] | we found that AcCARD binds PGPC in both native PAGE and limited trypsin digestion assays | 
2 |  | CCCCCCCCCCCCCCCC(=O)OC[C@@H](O)COP(=O)([O-])OCC[N+](C)(C)C [16:0 LysoPC, 1-palmitoyl-2-hydroxy-sn-glycero-3-phosphocholine] |  | ~10 µM
